From US6054435A, “6-O-substituted macrolides having antibacterial activity” (priority 1999, dated 2000)
Values after ≈ are worked out from the molar mass of the structure shown.

How the values were obtained:
Assay in all cases: in vitro antibacterial activity (MIC), agar dilution
Type in all cases: cell-based
[1] = system: Streptococcus Pneumonia 5649; conditions: organism code ZZA; BHI agar, 35-37° C., 20 to 24 hours; unit assumed
Summary of the method: (§1)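 Antibacterial MIC determined by agar dilution in BHI agar with twelve successive concentrations; controls comprised compound-free plates and a same-class reference antibiotic. MIC: lowest concentration giving no growth, slight haze or sparsely isolated colonies.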

[2] = system: Streptococcus Pneumonia GYR 1171; conditions: organism code YY; BHI agar, 35-37° C., 20 to 24 hours; unit assumed
Summary of the method: as §1

[3] = system: Staphylococcus aureus ATCC 6538P; conditions: organism code AA; BHI agar, 35-37° C., 20 to 24 hours; unit assumed
Summary of the method: as §1

[4] = system: Enterococcus faecium ATCC 8043; conditions: organism code II; BHI agar, 35-37° C., 20 to 24 hours; unit assumed
Summary of the method: as §1

[5] = system: Mycobacterium smegmatis ATCC 114; conditions: organism code UU; BHI agar, 35-37° C., 20 to 24 hours; unit assumed
Summary of the method: as §1

Escherichia coli JUHL = conditions: organism code QQ; BHI agar, 35-37° C., 20 to 24 hours; unit assumed
Summary of the method: as §1

[6] = system: Micrococcus luteus ATCC 4698; conditions: organism code PP; BHI agar, 35-37° C., 20 to 24 hours; unit assumed
Summary of the method: (§2)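 BHI agar incorporation method; twelve compound concentrations. Streptococcus and other slow growers inoculated at 1:10, other strains at 1:100. Visual MIC read-out versus growth control.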

[7] = system: Staphylococcus aureus 1775; conditions: organism code GG; BHI agar, 35-37° C., 20 to 24 hours; unit assumed
Summary of the method: as §1

[8] = system: Streptococcus pyogenes 930; conditions: organism code MM; BHI agar, 35-37° C., 20 to 24 hours; unit assumed
Summary of the method: as §1

[9] = system: Streptococcus Pneumonia ATCC6303; conditions: organism code XX; BHI agar, 35-37° C., 20 to 24 hours; unit assumed
Summary of the method: as §1

[10] = system: Streptococcus bovis A-5169; conditions: organism code JJ; BHI agar, 35-37° C., 20 to 24 hours; unit assumed
Summary of the method: as §1

Candida albicans CCH 442 = conditions: organism code TT; BHI agar, 35-37° C., 20 to 24 hours; unit assumed
Summary of the method: as §1

[11] = system: Nocardia Asteroides ATCC9970; conditions: organism code VV; BHI agar, 35-37° C., 20 to 24 hours; unit assumed
Summary of the method: as §1

[12] = system: Staphylococcus epidermidis 3519; conditions: organism code HH; BHI agar, 35-37° C., 20 to 24 hours; unit assumed
Summary of the method: as §1

[13] = system: Micrococcus luteus ATCC 9341; conditions: organism code OO; BHI agar, 35-37° C., 20 to 24 hours; unit assumed
Summary of the method: as §2

[14] = system: Haemophilis Influenzae DILL AMP R; conditions: organism code WW; BHI agar, 35-37° C., 20 to 24 hours; unit assumed
Summary of the method: as §1

Escherichia coli DC-2 = conditions: organism code SS; BHI agar, 35-37° C., 20 to 24 hours; unit assumed
Summary of the method: as §1

[15] = system: Streptococcus Pneumonia 5979; conditions: organism code ZZ; BHI agar, 35-37° C., 20 to 24 hours; unit assumed
Summary of the method: as §1

[16] = system: Staphylococcus aureus A5177; conditions: organism code BB; BHI agar, 35-37° C., 20 to 24 hours; unit assumed
Summary of the method: as §1

[17] = system: Streptococcus pyogenes EES61; conditions: organism code LL; BHI agar, 35-37° C., 20 to 24 hours; unit assumed
Summary of the method: as §1

[18] = system: Streptococcus agalactiae CMX 508; conditions: organism code KK; BHI agar, 35-37° C., 20 to 24 hours; unit assumed
Summary of the method: as §1

[19] = system: Staphylococcus aureus NCTC10649M; conditions: organism code EE; BHI agar, 35-37° C., 20 to 24 hours; unit assumed
Summary of the method: as §1

Escherichia coli SS = conditions: organism code RR; BHI agar, 35-37° C., 20 to 24 hours; unit assumed
Summary of the method: as §1

[20] = system: Streptococcus pyogenes PIU 2548; conditions: organism code NN; BHI agar, 35-37° C., 20 to 24 hours; unit assumed
Summary of the method: as §1

[21] = system: Staphylococcus aureus CMX 553; conditions: organism code FF; BHI agar, 35-37° C., 20 to 24 hours; unit assumed
Summary of the method: as §1

[22] = system: Staphylococcus aureus CMX 642A; conditions: organism code DD; BHI agar, 35-37° C., 20 to 24 hours; unit assumed
Summary of the method: as §1

[23] = system: Staphylococcus aureus A-5278; conditions: organism code CC; BHI agar, 35-37° C., 20 to 24 hours; unit assumed
Summary of the method: as §1

Row | Structure (SMILES) | MIC [1] [µg/mL] | MIC [2] [µg/mL] | MIC [3] [µg/mL] | MIC [4] [µg/mL] | MIC [5] [µg/mL] | MIC (Escherichia coli JUHL) [µg/mL] | MIC [6] [µg/mL] | MIC [7] [µg/mL] | MIC [8] [µg/mL] | MIC [9] [µg/mL] | MIC [10] [µg/mL] | MIC (Candida albicans CCH 442) [µg/mL] | MIC [11] [µg/mL] | MIC [12] [µg/mL] | MIC [13] [µg/mL] | MIC [14] [µg/mL] | MIC (Escherichia coli DC-2) [µg/mL] | MIC [15] [µg/mL] | MIC [16] [µg/mL] | MIC [17] [µg/mL] | other results
1 | CC[C@H]1OC(=O)[C@H](C)C(=O)[C@H](C)[C@@H](O[C@@H]2O[C@H](C)C[C@H](N(C)C)[C@H]2O)[C@](C)(OC/C=C/c2ccc(-c3cccs3)s2)C[C@@H](C)C(=O)[C@H](C)[C@H]2NC(=O)O[C@@]21C [Example 74] | 0.25 (≈ 0.311 µM) | ≤ 0.004 | 0.1 (≈ 0.125 µM) | 0.02 (≈ 0.0249 µM) | 0.39 (≈ 0.486 µM) | 100 (≈ 125 µM) | 0.1 (≈ 0.125 µM) | 25 (≈ 31.1 µM) | > 100 | ≤ 0.004 | 0.02 (≈ 0.0249 µM) | > 100 | 0.1 (≈ 0.125 µM) | 0.1 (≈ 0.125 µM) | 0.02 (≈ 0.0249 µM) | 4 (≈ 4.98 µM) | > 100 | 2 (≈ 2.49 µM) | 0.1 (≈ 0.125 µM) | 0.01 (≈ 0.0125 µM) | MIC [18]: ≤ 0.005 µg/mL; MIC [19]: 0.2 µg/mL (≈ 0.249 µM); MIC (Escherichia coli SS): 0.39 µg/mL (≈ 0.486 µM); MIC [20]: 0.1 µg/mL (≈ 0.125 µM); MIC [21]: 0.1 µg/mL (≈ 0.125 µM); MIC [22]: 0.1 µg/mL (≈ 0.125 µM); MIC [23]: 50 µg/mL (≈ 62.3 µM)
2 | CC[C@H]1OC(=O)[C@H](C)C(=O)[C@H](C)[C@@H](O[C@@H]2O[C@H](C)C[C@H](N(C)C)[C@H]2O)[C@](C)(OC/C=C/c2ccc(-c3ccccn3)s2)C[C@@H](C)C(=O)[C@H](C)[C@H]2NC(=O)O[C@@]21C [Example 75] | 0.125 (≈ 0.157 µM) | ≤ 0.004 | 0.05 (≈ 0.0627 µM) | 0.05 (≈ 0.0627 µM) | 1.56 (≈ 1.95 µM) | 50 (≈ 62.7 µM) | 0.1 (≈ 0.125 µM) | > 100 | 12.5 (≈ 15.7 µM) | ≤ 0.004 | 0.01 (≈ 0.0125 µM) | > 100 | 0.02 (≈ 0.0251 µM) | 0.05 (≈ 0.0627 µM) | 0.02 (≈ 0.0251 µM) | 2 (≈ 2.51 µM) | 25 (≈ 31.3 µM) | 1 (≈ 1.25 µM) | 0.05 (≈ 0.0627 µM) | 0.02 (≈ 0.0251 µM) | MIC [18]: 0.02 µg/mL (≈ 0.0251 µM); MIC [19]: 0.05 µg/mL (≈ 0.0627 µM); MIC (Escherichia coli SS): 0.39 µg/mL (≈ 0.489 µM); MIC [20]: 0.1 µg/mL (≈ 0.125 µM); MIC [21]: 0.05 µg/mL (≈ 0.0627 µM); MIC [22]: 0.05 µg/mL (≈ 0.0627 µM); MIC [23]: > 100 µg/mL
3 | CC[C@H]1OC(=O)[C@H](C)C(=O)[C@H](C)[C@@H](O[C@@H]2O[C@H](C)C[C@H](N(C)C)[C@H]2O)[C@](C)(OC/C=C/c2cnc(-c3cnccn3)s2)C[C@@H](C)C(=O)[C@H](C)[C@H]2NC(=O)O[C@@]21C [Example 58] | 0.25 (≈ 0.313 µM) | ≤ 0.004 | 0.1 (≈ 0.125 µM) | 0.02 (≈ 0.025 µM) | 1.56 (≈ 1.95 µM) | 50 (≈ 62.5 µM) | 0.05 (≈ 0.0625 µM) | > 100 | 3.1 (≈ 3.88 µM) | ≤ 0.004 | 0.01 (≈ 0.0125 µM) | > 100 | 0.02 (≈ 0.025 µM) | 0.1 (≈ 0.125 µM) | 0.01 (≈ 0.0125 µM) | 4 (≈ 5 µM) | 100 (≈ 125 µM) | 4 (≈ 5 µM) | 0.05 (≈ 0.0625 µM) | 0.02 (≈ 0.025 µM) | MIC [18]: 0.02 µg/mL (≈ 0.025 µM); MIC [19]: 0.1 µg/mL (≈ 0.125 µM); MIC (Escherichia coli SS): 0.2 µg/mL (≈ 0.25 µM); MIC [20]: 0.1 µg/mL (≈ 0.125 µM); MIC [21]: 0.05 µg/mL (≈ 0.0625 µM); MIC [22]: 0.1 µg/mL (≈ 0.125 µM); MIC [23]: > 100 µg/mL
4 | CC[C@H]1OC(=O)[C@H](C)C(=O)[C@H](C)[C@@H](O[C@@H]2O[C@H](C)C[C@H](N(C)C)[C@H]2O)[C@](C)(OCC#Cc2ccc(-c3cccc(NC(C)=O)c3)s2)C[C@@H](C)C(=O)[C@H](C)[C@H]2NC(=O)O[C@@]21C [Example 20] | 0.25 (≈ 0.293 µM) | 0.015 (≈ 0.0176 µM) | 0.1 (≈ 0.117 µM) | 0.05 (≈ 0.0587 µM) | 1.56 (≈ 1.83 µM) | > 100 | 0.1 (≈ 0.117 µM) | > 100 | 6.2 (≈ 7.28 µM) | 0.15 (≈ 0.176 µM) | ≤ 0.005 | > 100 | 0.1 (≈ 0.117 µM) | 0.1 (≈ 0.117 µM) | 0.02 (≈ 0.0235 µM) | 4 (≈ 4.69 µM) | 100 (≈ 117 µM) | 0.5 (≈ 0.587 µM) | 0.05 (≈ 0.0587 µM) | 0.02 (≈ 0.0235 µM) | MIC [18]: ≤ 0.005 µg/mL; MIC [19]: 0.1 µg/mL (≈ 0.117 µM); MIC (Escherichia coli SS): 0.2 µg/mL (≈ 0.235 µM); MIC [20]: 0.2 µg/mL (≈ 0.235 µM); MIC [21]: 0.1 µg/mL (≈ 0.117 µM); MIC [22]: 0.1 µg/mL (≈ 0.117 µM); MIC [23]: > 100 µg/mL
